Source: PubChem BioAssay AID2060601 (Molecular Pharmacology Branch, DTP, NCI, 2025)
Where “and” joins values, the source holds several entries; their conditions need not be identical. Equal entries are not always repeated.

Tested on: 874868-142-R-J2-PDC complex spheroids, growth % test/control
Assay: Anticancer human tumor 874868-142-R-J2-PDC patient-derived head and neck squamous carcinoma cell line growth inhibition [CLK]
Details: for viability, T/C: stronger effect = lower value; active means viability on the fitted dose curve at most 10% of control; inactive means the rest
In short: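 Patient-derived tumor cells grown as complex spheroids with HUVEC endothelial cells and mesenchymal stem cells, treated with drug combinations. Concentrations descend in half-log steps from near clinical Cmax, or from 10 microM if Cmax unknown.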

[1] = curve of first compound, second compound 0.0316 µM
[2] = curve of first compound, second compound 0.1 µM
[3] = curve of first compound, second compound 0.316 µM
[4] = curve of first compound, second compound 1 µM
[5] = curve of first compound, second compound 3.16 µM
[6] = curve of first compound, second compound 10 µM
[7] = second compound 0.0316 µM, first compound 0.0316 µM
[8] = second compound 0.0316 µM, first compound 0.1 µM
[9] = second compound 0.0316 µM, first compound 0.316 µM
[10] = second compound 0.0316 µM, first compound 1 µM
[11] = second compound 0.0316 µM, first compound 3.16 µM
[12] = second compound 0.0316 µM, first compound 10 µM
[13] = second compound 0.1 µM, first compound 0.0316 µM
[14] = second compound 0.1 µM, first compound 0.1 µM
[15] = second compound 0.1 µM, first compound 0.316 µM
[16] = second compound 0.1 µM, first compound 1 µM
[17] = second compound 0.1 µM, first compound 3.16 µM
[18] = second compound 0.1 µM, first compound 10 µM
[19] = second compound 0.316 µM, first compound 0.0316 µM
[20] = second compound 0.316 µM, first compound 0.1 µM
[21] = second compound 0.316 µM, first compound 0.316 µM
[22] = second compound 0.316 µM, first compound 1 µM
[23] = second compound 0.316 µM, first compound 3.16 µM
[24] = second compound 0.316 µM, first compound 10 µM
[25] = second compound 1 µM, first compound 0.0316 µM
[26] = second compound 1 µM, first compound 0.1 µM
[27] = second compound 1 µM, first compound 0.316 µM
[28] = second compound 1 µM, first compound 1 µM
[29] = second compound 1 µM, first compound 3.16 µM
[30] = second compound 1 µM, first compound 10 µM
[31] = second compound 3.16 µM, first compound 0.0316 µM
[32] = second compound 3.16 µM, first compound 0.1 µM
[33] = second compound 3.16 µM, first compound 0.316 µM
[34] = second compound 3.16 µM, first compound 1 µM
[35] = second compound 3.16 µM, first compound 3.16 µM
[36] = second compound 3.16 µM, first compound 10 µM
[37] = second compound 10 µM, first compound 0.0316 µM
[38] = second compound 10 µM, first compound 0.1 µM
[39] = second compound 10 µM, first compound 0.316 µM
[40] = second compound 10 µM, first compound 1 µM
[41] = second compound 10 µM, first compound 3.16 µM
[42] = second compound 10 µM, first compound 10 µM
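Further: spheroids exposed to the compounds for 7 days.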
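Wherever viability, T/C is given: 100% = DMSO vehicle control viability.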

CC(CO)NC(=O)c1cc(-c2ccc(Cl)cc2)nn(-c2cnn(C)c2)c1=O (stereo not given) + CN1CCN(c2cc(C(=O)Nc3cc4cc(-c5cnn(C)c5)ccc4cn3)ccn2)CC1
active: viability, T/C [25] 0.42% | viability, T/C [26] 5.08% | viability, T/C [27] 2.66% | viability, T/C [28] 0.31% | viability, T/C [29] 0.63% | viability, T/C [30] 1.19% | viability, T/C [31] 0.31% | viability, T/C [32] 0.77% | viability, T/C [33] 0.29% | viability, T/C [34] 0.32% | viability, T/C [35] 3.04% | viability, T/C [36] 2.75% | viability, T/C [37] 0.18% | viability, T/C [38] 0.21% | viability, T/C [39] 2.19% | viability, T/C [40] 0.22% | viability, T/C [41] 3.03% | viability, T/C [42] 0.28%
inactive: viability, T/C [7] 105% | viability, T/C [8] 99.2% | viability, T/C [9] 82.4% | viability, T/C [10] 92.8% | viability, T/C [11] 93% | viability, T/C [12] 83.8% | viability, T/C [13] 76.1% | viability, T/C [14] 72.2% | viability, T/C [15] 65.8% | viability, T/C [16] 67.9% | viability, T/C [17] 68.5% | viability, T/C [18] 77.2% | viability, T/C [19] 19.4% | viability, T/C [20] 24.8% | viability, T/C [21] 20.6% | viability, T/C [22] 19.1% | viability, T/C [23] 20.2% | viability, T/C [24] 29.1%
> 10000 nM: IC50 [1] | IC50 [2]
< 31.6 nM: IC50 [3] | IC50 [4] | IC50 [5] | IC50 [6]

Nc1ccccc1NC(=O)c1ccc(CNC(=O)OCc2cccnc2)cc1
7730 nM and 6990 nM: IC50 (curve of compound)
inactive: viability, T/C (compound 0.0316 µM) 97% and 102% | viability, T/C (compound 0.1 µM) 95.4% and 87.3% | viability, T/C (compound 0.316 µM) 90% and 113% | viability, T/C (compound 1 µM) 110% and 124% | viability, T/C (compound 3.16 µM) 95.8% and 101% | viability, T/C (compound 10 µM) 36.9% and 26.4%

CC(C)CC(NC(=O)C(Cc1ccccc1)NC(=O)c1cnccn1)B(O)O (stereo not given) + CN1CCN(c2cc(C(=O)Nc3cc4cc(-c5cnn(C)c5)ccc4cn3)ccn2)CC1
< 0.949 nM: IC50 [3] | IC50 [4] | IC50 [5] | IC50 [6]
active: viability, T/C (second compound 0.0316 µM, first compound 0.00949 µM) 1.41% | viability, T/C (second compound 0.0316 µM, first compound 0.03 µM) 0.55% | viability, T/C (second compound 0.0316 µM, first compound 0.0949 µM) 0.23% | viability, T/C (second compound 0.0316 µM, first compound 0.3 µM) 0.27% | viability, T/C (second compound 0.1 µM, first compound 0.00949 µM) 2.27% | viability, T/C (second compound 0.1 µM, first compound 0.03 µM) 0.42% | viability, T/C (second compound 0.1 µM, first compound 0.0949 µM) 0.14% | viability, T/C (second compound 0.1 µM, first compound 0.3 µM) 0.34% | viability, T/C (second compound 0.316 µM, first compound 0.00949 µM) 0.46% | viability, T/C (second compound 0.316 µM, first compound 0.03 µM) 0.14% | viability, T/C (second compound 0.316 µM, first compound 0.0949 µM) 0.13% | viability, T/C (second compound 0.316 µM, first compound 0.3 µM) 0.15% | viability, T/C (second compound 1 µM, first compound 0.000949 µM) 0.31% | viability, T/C (second compound 1 µM, first compound 0.003 µM) 0.22% | viability, T/C (second compound 1 µM, first compound 0.00949 µM) 1.17% | viability, T/C (second compound 1 µM, first compound 0.03 µM) 0.2% | viability, T/C (second compound 1 µM, first compound 0.0949 µM) 0.1% | viability, T/C (second compound 1 µM, first compound 0.3 µM) 0.14% | viability, T/C (second compound 3.16 µM, first compound 0.000949 µM) 0.33% | viability, T/C (second compound 3.16 µM, first compound 0.003 µM) 0.27% | viability, T/C (second compound 3.16 µM, first compound 0.00949 µM) 0.28% | viability, T/C (second compound 3.16 µM, first compound 0.03 µM) 0.14% | viability, T/C (second compound 3.16 µM, first compound 0.0949 µM) 0.4% | viability, T/C (second compound 3.16 µM, first compound 0.3 µM) 0.25% | viability, T/C (second compound 10 µM, first compound 0.000949 µM) 0.09% | viability, T/C (second compound 10 µM, first compound 0.003 µM) 3.32% | viability, T/C (second compound 10 µM, first compound 0.00949 µM) 3.67% | viability, T/C (second compound 10 µM, first compound 0.03 µM) 0.13% | viability, T/C (second compound 10 µM, first compound 0.0949 µM) 0.18% | viability, T/C (second compound 10 µM, first compound 0.3 µM) 0.22%
4.5 nM: IC50 [2]
4.88 nM: IC50 [1]
inactive: viability, T/C (second compound 0.0316 µM, first compound 0.000949 µM) 79.4% | viability, T/C (second compound 0.0316 µM, first compound 0.003 µM) 91.5% | viability, T/C (second compound 0.1 µM, first compound 0.000949 µM) 68.9% | viability, T/C (second compound 0.1 µM, first compound 0.003 µM) 83.1% | viability, T/C (second compound 0.316 µM, first compound 0.000949 µM) 20.8% | viability, T/C (second compound 0.316 µM, first compound 0.003 µM) 14.3%

O=C(c1cc(Cc2n[nH]c(=O)c3ccccc23)ccc1F)N1CCN(C(=O)C2CC2)CC1
inactive: viability, T/C (compound 0.0316 µM) 102% and 97.1% | viability, T/C (compound 0.1 µM) 113% and 78.1% | viability, T/C (compound 0.316 µM) 95.2% and 74.9% | viability, T/C (compound 1 µM) 91.5% and 85.1% | viability, T/C (compound 3.16 µM) 86.9% and 76.4% | viability, T/C (compound 10 µM) 83.9% and 71.1%
> 10000 nM: IC50 (curve of compound)

COC1C=CCC(C)C(C)S(=O)(=O)NC(=O)c2ccc3c(c2)N(CC2CCC21)CC1(CCCc2cc(Cl)ccc21)CO3 (stereo not given) + CN1CCN(c2cc(C(=O)Nc3cc4cc(-c5cnn(C)c5)ccc4cn3)ccn2)CC1
< 31.6 nM: IC50 [3] | IC50 [4] | IC50 [5] | IC50 [6]
inactive: viability, T/C [7] 101% | viability, T/C [8] 93.2% | viability, T/C [9] 66.2% | viability, T/C [10] 60.8% | viability, T/C [11] 34.7% | viability, T/C [12] 18.2% | viability, T/C [13] 77.1% | viability, T/C [14] 74.3% | viability, T/C [15] 65.2% | viability, T/C [16] 56.1% | viability, T/C [17] 15.2% | viability, T/C [19] 21.6% | viability, T/C [20] 14.9% | viability, T/C [21] 11.8%
1150 nM: IC50 [2]
1390 nM: IC50 [1]
active: viability, T/C [18] 8.09% | viability, T/C [22] 6.03% | viability, T/C [23] 6.07% | viability, T/C [24] 5.99% | viability, T/C [25] 0.48% | viability, T/C [26] 0.33% | viability, T/C [27] 1.14% | viability, T/C [28] 0.2% | viability, T/C [29] 2.7% | viability, T/C [30] 1.73% | viability, T/C [31] 0.85% | viability, T/C [32] 0.74% | viability, T/C [33] 0.27% | viability, T/C [34] 0.44% | viability, T/C [35] 0.33% | viability, T/C [36] 1.12% | viability, T/C [37] 0.79% | viability, T/C [38] 0.24% | viability, T/C [39] 0.61% | viability, T/C [40] 0.22% | viability, T/C [41] 1.51% | viability, T/C [42] 0.24%
